The source made the active and inactive calls. No cut-off for these calls is given here.
Assays:
Histone deacetylase 1 [1] = target: T1, Histone deacetylase 1 (Homo sapiens, UniProt Q13547); assay: Inhibition of full length C-terminal His/FLAG-tagged human HDAC1 expressed in baculovirus expression system at 1 uM using ZMAL as substrate incubated for 90 mins by fluorescence assay relative to control
[2] = target: T2, Protein deacetylase HDAC6 (Homo sapiens) (UniProt Q9UBN7); assay: Inhibition of full length N-terminal GST-tagged human HDAC6 expressed in baculovirus expression system at 1 uM using ZMAL as substrate incubated for 90 mins by fluorescence assay relative to control
T2 sequence (whole entry): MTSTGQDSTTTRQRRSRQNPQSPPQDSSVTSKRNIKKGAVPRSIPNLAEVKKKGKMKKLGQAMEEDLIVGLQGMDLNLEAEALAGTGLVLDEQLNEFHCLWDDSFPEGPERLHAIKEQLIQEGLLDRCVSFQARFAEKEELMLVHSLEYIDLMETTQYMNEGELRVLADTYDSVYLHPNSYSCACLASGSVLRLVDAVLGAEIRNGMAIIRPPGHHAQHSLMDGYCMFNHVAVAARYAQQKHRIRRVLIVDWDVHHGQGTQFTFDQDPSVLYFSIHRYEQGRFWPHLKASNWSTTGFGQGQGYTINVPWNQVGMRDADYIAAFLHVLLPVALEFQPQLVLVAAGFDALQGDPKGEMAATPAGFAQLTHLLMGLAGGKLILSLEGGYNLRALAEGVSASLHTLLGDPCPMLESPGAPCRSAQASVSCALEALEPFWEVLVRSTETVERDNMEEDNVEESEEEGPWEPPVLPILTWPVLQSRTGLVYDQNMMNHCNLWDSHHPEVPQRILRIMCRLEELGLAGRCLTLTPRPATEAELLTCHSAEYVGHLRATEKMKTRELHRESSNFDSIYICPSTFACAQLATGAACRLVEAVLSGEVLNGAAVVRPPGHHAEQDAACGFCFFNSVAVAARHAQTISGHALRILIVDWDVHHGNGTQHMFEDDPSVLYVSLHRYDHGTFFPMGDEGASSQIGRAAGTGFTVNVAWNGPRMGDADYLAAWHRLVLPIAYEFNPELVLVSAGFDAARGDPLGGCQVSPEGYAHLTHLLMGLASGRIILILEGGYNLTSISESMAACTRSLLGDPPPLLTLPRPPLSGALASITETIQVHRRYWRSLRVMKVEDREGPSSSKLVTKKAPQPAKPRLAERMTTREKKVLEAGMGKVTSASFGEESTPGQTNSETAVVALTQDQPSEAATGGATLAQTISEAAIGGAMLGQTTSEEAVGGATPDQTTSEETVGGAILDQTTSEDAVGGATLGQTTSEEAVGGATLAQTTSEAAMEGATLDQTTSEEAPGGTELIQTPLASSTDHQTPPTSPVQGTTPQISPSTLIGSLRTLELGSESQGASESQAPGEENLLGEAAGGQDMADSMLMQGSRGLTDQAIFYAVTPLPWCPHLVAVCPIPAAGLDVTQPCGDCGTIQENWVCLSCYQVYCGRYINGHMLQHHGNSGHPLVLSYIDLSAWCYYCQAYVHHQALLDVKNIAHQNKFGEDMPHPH

Histone deacetylase 1 [3] = target: T1, Histone deacetylase 1; assay: Inhibition of full length C-terminal His/FLAG-tagged human HDAC1 expressed in baculovirus expression system using ZMAL as substrate incubated for 90 mins by fluorescence assay
[4] = target: T3, Protein deacetylase HDAC6 (Homo sapiens, UniProt Q9UBN7); assay: Inhibition of full length N-terminal GST-tagged human HDAC6 expressed in baculovirus expression system using ZMAL as substrate incubated for 90 mins by fluorescence assay
T3 sequence (Q9UBN7 whole entry): T2 sequence (whole entry)

Homo sapiens [5] = species: Homo sapiens; assay: Selectivity ratio of IC50 for full length C-terminal His/FLAG-tagged human HDAC1 expressed in baculovirus expression system to IC50 full length N-terminal GST-tagged human HDAC6 expressed in baculovirus expression system
Histone deacetylase 8 = target: T4, Histone deacetylase 8 (Homo sapiens, UniProt Q9BY41); assay: Inhibition of human recombinant HDAC8 expressed in Escherichia coli using Fluor de Lys substrate preincubated for 15 mins followed by substrate addition and measured after 60 mins by fluorescence assay
T4 sequence (Q9BY41 whole entry): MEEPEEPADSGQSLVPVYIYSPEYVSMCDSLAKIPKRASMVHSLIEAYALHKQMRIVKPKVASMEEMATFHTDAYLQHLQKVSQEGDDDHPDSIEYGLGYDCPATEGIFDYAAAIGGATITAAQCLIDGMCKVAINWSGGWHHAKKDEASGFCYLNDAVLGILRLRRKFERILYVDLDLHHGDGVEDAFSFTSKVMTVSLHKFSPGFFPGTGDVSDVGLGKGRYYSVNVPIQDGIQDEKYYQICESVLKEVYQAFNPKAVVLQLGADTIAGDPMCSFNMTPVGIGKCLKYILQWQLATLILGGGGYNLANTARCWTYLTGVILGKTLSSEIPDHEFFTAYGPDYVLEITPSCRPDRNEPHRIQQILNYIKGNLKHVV

[6] = target: T2, Protein deacetylase HDAC6 (Homo sapiens); assay: Inhibition of HDAC6 in human MEC1 cells assessed as reduction in STAT3 phosphorylation at 5 to 10 uM measured after 30 hrs by immunoblot assay; format: cell-based; conditions: dose microM 5-10, time 30.0 hrs
[7] = target: T2, Protein deacetylase HDAC6 (Homo sapiens); assay: Inhibition of HDAC6 in human U-266 cells assessed as reduction in STAT3 phosphorylation at 25 uM measured after 4 to 48 hrs by immunoblot assay; format: cell-based; conditions: time hrs 4-48
[8] = Cytotoxicity against mouse NIH3T3 cells assessed as reduction in cell viability measured after 24 hrs by neutral red uptake assay; format: cell-based; conditions: read-out: TC50
KYSE-520 cell line = assay: Antiproliferative activity against human KYSE520 cells assessed as reduction in cell viability measured after 48 hrs by alamar blue dye based spectrofluorometry; format: functional; conditions: KYSE-520, 48 h
OE33 = assay: Antiproliferative activity against human OE33 cells assessed as reduction in cell viability measured after 72 hrs by MTT assay; format: functional, cell-based; conditions: OE33, 72 h
Ca9-22 = assay: Antiproliferative activity against human Ca9-22 cells assessed as reduction in cell viability measured after 48 hrs by alamar blue dye based spectrofluorometry; format: functional; conditions: Ca9-22, 48 h
[9] = Antiproliferative activity against human TR-146 cells assessed as reduction in cell viability measured after 48 hrs by alamar blue dye based spectrofluorometry; format: functional; conditions: TR146, 48 h
Homo sapiens [10] = species: Homo sapiens; assay: Selectivity ratio of IC50 for human recombinant HDAC8 expressed in Escherichia coli to IC50 full length N-terminal GST-tagged HDAC6 expressed in baculovirus expression system
[11] = Mutagenicity in Salmonella typhimurium TA98 at 8 to 160 uM measured after 90 mins in absence of S9 fraction by Ames test; format: toxicity; conditions: salmonella enterica subsp. enterica serovar typhimurium, s9, 1.5 h, dose 8-160 µM
[12] = Mutagenicity in Salmonella typhimurium TA98 at 8 to 160 uM measured after 90 mins in presence of S9 fraction by Ames test; format: toxicity, subcellular; conditions: salmonella enterica subsp. enterica serovar typhimurium, s9, 1.5 h, dose 8-160 µM
[13] = Mutagenicity in Salmonella typhimurium TA100 at 24 to 40 uM measured after 90 mins in absence of S9 fraction by Ames test; format: toxicity; conditions: salmonella enterica subsp. enterica serovar typhimurium, s9, 1.5 h, dose 24-40 µM
[14] = Mutagenicity in Salmonella typhimurium TA100 at 24 to 40 uM measured after 90 mins in presence of S9 fraction by Ames test; format: toxicity, subcellular; conditions: salmonella enterica subsp. enterica serovar typhimurium, s9, 1.5 h, dose 24-40 µM
NB-4 [15] = assay: Cell cycle arrest in human NB-4 cells at 5 to 10 uM measured after 24 to 48 hrs by propidium iodide staining based flow cytometry; format: functional; conditions: dose microM 5-10, time hrs 24-48
[16] = target: T2, Protein deacetylase HDAC6 (Homo sapiens); assay: Inhibition of HDAC6 in human NB-4 cells assessed as increase in tubulin acetylation at 10 uM measured after 24 to 48 hrs by Western blot analysis; format: cell-based; conditions: time hrs 24-48
Histone deacetylase = assay: Inhibition of HDAC in human NB-4 cells assessed as effect on histone acetylation at 10 uM measured after 24 to 48 hrs by Western blot analysis; format: cell-based; conditions: nb-4, 10 µM, time 24-48 hrs
NB-4 [17] = assay: Induction of apoptosis in human NB-4 cells assessed as increase in cleaved PARP expression at 10 uM measured after 24 to 48 hrs by Western blot analysis; format: functional, cell-based; conditions: time hrs 24-48
[18] = Antiproliferative activity against human U266B cells assessed as reduction in cell viability measured after 24 to 48 hrs by alamar blue dye based fluorescence assay; format: functional
[19] = target: T2, Protein deacetylase HDAC6 (Homo sapiens); assay: Inhibition of HDAC6 in human MEC1 cells assessed as reduction in STAT3 phosphorylation measured after 30 hrs by immunoblot assay; format: cell-based
U-937 = assay: Cell cycle arrest in human U-937 cells assessed as increase in accumulation at pre-G1 phase at 10 uM measured after 48 hrs by propidium iodide staining based flow cytometry; format: functional
NB-4 [20] = assay: Cell cycle arrest in human NB-4 cells at 5 to 10 uM measured after 48 hrs by propidium iodide staining based flow cytometry; format: functional; conditions: dose microM 5-10, time 48.0 hrs
U266B = assay: Induction of apoptosis in human U266B cells at 25 to 50 uM measured after 48 hrs by Annexin-V/propidium iodide staining based flow cytometry; format: functional, cell-based; conditions: dose microM 25-50, time 48.0 hrs
[21] = target: T2, Protein deacetylase HDAC6 (Homo sapiens); assay: Inhibition of HDAC6 in human U-266 cells assessed as reduction in STAT3 phosphorylation measured after 4 to 48 hrs by immunoblot assay; format: cell-based; conditions: time hrs 4-48

T1 sequence (Q13547 whole entry): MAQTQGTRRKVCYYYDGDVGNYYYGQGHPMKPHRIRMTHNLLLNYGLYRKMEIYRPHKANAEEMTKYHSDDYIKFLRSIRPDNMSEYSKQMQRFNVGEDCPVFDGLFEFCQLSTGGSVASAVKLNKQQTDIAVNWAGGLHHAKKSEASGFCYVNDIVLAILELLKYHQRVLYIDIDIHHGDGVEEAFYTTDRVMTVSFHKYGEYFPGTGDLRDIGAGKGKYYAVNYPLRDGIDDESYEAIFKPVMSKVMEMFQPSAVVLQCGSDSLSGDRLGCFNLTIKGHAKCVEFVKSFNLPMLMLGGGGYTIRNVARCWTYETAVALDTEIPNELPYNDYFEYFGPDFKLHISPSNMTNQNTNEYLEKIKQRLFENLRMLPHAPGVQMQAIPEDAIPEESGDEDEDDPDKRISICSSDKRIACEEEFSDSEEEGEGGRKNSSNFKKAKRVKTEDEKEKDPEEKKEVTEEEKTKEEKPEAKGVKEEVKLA

| SMILES | inhibition (Histone deacetylase 1 [1]) | inhibition [2] | IC50 (Histone deacetylase 1 [3]) | IC50 [4] | Ratio IC50 (Homo sapiens [5]) | IC50 (Histone deacetylase 8) | IC50 (OE33) | IC50 (Ca9-22) | IC50 [9] | also measured |
| --- | --- | --- | --- | --- | --- | --- | --- | --- | --- | --- |
| CN1CC2(CCN(Cc3ccc(C(=O)NO)s3)CC2)c2cccc(-c3ccccc3)c21 | 6.6% | 51.3% | – | – | – | – | – | – | – | – |
| CN1CC2(CCN(Cc3ccc(C(=O)NO)cc3)CC2)c2ccccc21 | – | – | 22.4 µM | 0.264 µM | 85 | 1.91 µM | 17.7 µM | > 1000 µM | > 1000 µM | inhibition [6]: Active; inhibition [7]: Active; CC50 at 24 h [8]: 24 µM; IC50 (KYSE-520 cell line): 197 µM; Ratio IC50 (Homo sapiens [10]): 7; Activity [11]: Non-Toxic; Activity [12]: Non-Toxic; Activity [13]: Toxic; Activity [14]: Toxic |
| CC(C)(C)OC(=O)N1CCC2(CC1)CN(Cc1ccc(C(=O)NO)cc1)c1ccccc12 | – | – | – | – | 95 | – | – | – | – | – |
| O=C(NO)c1ccc(CN2CCC3(CC2)CN(C(=O)c2ccccc2)c2ccccc23)cc1 | – | – | 10.1 µM | 0.155 µM | 65 | – | – | > 1000 µM | > 1000 µM | – |
| O=C(NO)c1ccc(CC(=O)N2CCC3(CC2)CN(Cc2ccccc2)c2ccccc23)cc1 | – | – | 10.2 µM | 0.227 µM | 45 | – | 13.8 µM | > 1000 µM | 54 µM | IC50 (KYSE-520 cell line): 33.8 µM; Activity (NB-4 [15]): Active; inhibition [16]: Active; inhibition (INH) (Histone deacetylase): Not Active; Activity (NB-4 [17]): Active |
| CN1CC2(CCN(Cc3ccc(C(=O)NO)cc3)CC2)c2cccc(-c3ccccc3)c21 | 8.5% | 50% | – | – | – | – | – | – | – | – |
| O=C(NO)c1ccc(CNC(=O)N2CCC3(CC2)CN(Cc2ccccc2)c2ccccc23)cc1 | – | – | 3.6 µM | 0.11 µM | 33 | 2.48 µM | – | 55 µM | > 1000 µM | IC50 [18]: 59.4 µM |
| O=C(NO)c1ccc(CN2CCC3(CC2)CN(C(=O)c2ccccc2)c2c(-c4ccccc4)cccc23)cc1 | – | – | 4.7 µM | 0.465 µM | 10 | – | – | – | – | – |
| O=C(NO)c1ccc(CN2CCC3(CC2)CN(Cc2ccccc2)c2c(-c4ccccc4)cccc23)cc1 | 2.9% | 29.7% | – | – | – | – | – | – | – | – |
| O=C(NO)c1ccc(COC(=O)N2CCC3(CC2)CN(Cc2ccccc2)c2ccccc23)cc1 | – | – | 6.8 µM | 0.0485 µM | 140 | 3.19 µM | 37.8 µM | > 1000 µM | 133 µM | inhibition [19]: Dose-dependent effect; CC50 at 24 h [8]: 40 µM; IC50 [18]: 20.2 µM; Activity (U-937): Active; Activity (NB-4 [20]): Active; inhibition [16]: Active; inhibition (INH) (Histone deacetylase): Not Active; Activity (NB-4 [17]): Active; Activity (U266B): Active; inhibition [21]: Dose-dependent effect; Activity [13]: Toxic; Activity [14]: Toxic |

From ChEMBL document CHEMBL4725478, “Spiroindoline-Capped Selective HDAC6 Inhibitors: Design, Synthesis, Structural Analysis, and Biological Evaluation” (ACS Med Chem Lett, 2020)
